Test results as given in patent publication US20110082130A1 (LIGAND PHARMACEUTICALS, INC., priority 2006, published 2011).

Biological target: T1, chimeric human H3 receptor (Homo sapiens, UniProt Q9Y5N1)
T1 construct: made in house; host or cells: Sf9 insect cells (baculovirus); P2 membrane preparation
Experiment: Chimeric human H3 receptor GTP binding assay (agonist-stimulated GTP-gamma35S binding, Example 7)
Type: biochemical
Outline: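 Sf9 membranes co-expressing chimeric human H3 receptor and heterotrimeric G-protein, 35 μg/tube, in pH 7.4 Tris buffer with 10 μM GDP. Test compounds (10^−10–10^−6 M) competed against 1 μM histamine, […] GTP-gamma35S, 60 min at room temperature. Filter-bound radioactivity counted; IC50 converted to Ki by Cheng-Prusoff. Agonism/inverse agonism tested without histamine (EC50).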

[1] = Table II, "*" = Ki in assay of Example 7 less than 1 micromolar
[2] = assay of Example 7, "*" in Ki of Table II
[3] = Table I, P2 membranes of Sf9 cells, 1 μM histamine as agonist, Ki from IC50 by Cheng-Prusoff
[4] = Table II "Ki", symbol *, assay of Example 7

T1 sequence (Q9Y5N1 with tags, fused parts or gaps): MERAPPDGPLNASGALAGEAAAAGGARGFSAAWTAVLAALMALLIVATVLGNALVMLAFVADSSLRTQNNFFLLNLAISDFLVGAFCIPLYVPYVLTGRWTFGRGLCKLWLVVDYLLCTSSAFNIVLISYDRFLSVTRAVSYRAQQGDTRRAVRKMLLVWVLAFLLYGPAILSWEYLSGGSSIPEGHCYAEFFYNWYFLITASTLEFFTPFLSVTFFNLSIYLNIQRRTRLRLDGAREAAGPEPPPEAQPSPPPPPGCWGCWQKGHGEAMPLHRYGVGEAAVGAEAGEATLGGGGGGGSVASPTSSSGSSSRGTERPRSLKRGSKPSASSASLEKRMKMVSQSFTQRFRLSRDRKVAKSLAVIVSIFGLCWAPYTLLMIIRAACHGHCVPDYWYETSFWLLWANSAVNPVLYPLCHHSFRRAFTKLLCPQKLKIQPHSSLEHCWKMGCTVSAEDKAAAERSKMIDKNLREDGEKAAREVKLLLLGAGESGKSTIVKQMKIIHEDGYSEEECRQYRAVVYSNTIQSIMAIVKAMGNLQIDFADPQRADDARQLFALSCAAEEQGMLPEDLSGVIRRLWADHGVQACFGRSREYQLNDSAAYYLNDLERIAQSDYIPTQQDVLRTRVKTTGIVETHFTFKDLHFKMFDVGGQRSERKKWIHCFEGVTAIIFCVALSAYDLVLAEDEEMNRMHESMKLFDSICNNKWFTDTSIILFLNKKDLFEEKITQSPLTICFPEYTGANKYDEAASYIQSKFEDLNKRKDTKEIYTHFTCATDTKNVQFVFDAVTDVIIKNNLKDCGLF

Ki [1] [nM]	Ki [2] [nM]	SMILES	also measured
–	< 1000	COc1ccc(-c2ccc(-c3nc4c(s3)CN(CC(=O)N3CCN(C5CCC5)CC3)CC4)cc2)cc1 [Compound 321, 5-[2-(4-cyclobutylpiperazin-1-yl)-2-oxoethyl]-2-(4′-methoxybiphenyl-4-yl)-4,5,6,7-tetrahydro[1,3]thiazolo [5,4-c]pyridine]	–
–	< 1000	Cc1cccc(C)c1-c1nc2c(s1)CN(CC(=O)N1CCN(C3CCC3)CC1)CC2 [Compound 363, 5-[2-(4-cyclobutylpiperazin-1-yl)-2-oxoethyl]-2-(2,6-dimethylphenyl)-4,5,6,7-tetrahydro[1,3]thiazolo [5,4-c]pyridine]	–
< 1000	–	CCN(C)c1ccc2c(n1)CCN(CC(=O)N1CCN(C3CCC3)CC1)C2 [Compound 245, 6-[2-(4-cyclobutylpiperazin-1-yl)-2-oxoethyl]-N-ethyl-N-methyl-5,6,7,8-tetrahydro-1,6-naphthyridin-2-amine]	–
< 1000	–	O=C(CN1CCc2nn(-c3cncc(C4CC4)n3)cc2C1)N1CCN(C2CCC2)CC1 [Compound 272, 5-[2-(4-cyclobutylpiperazin-1-yl)-2-oxoethyl]-2-(6-cyclopropylpyrazin-2-yl)-4,5,6,7-tetrahydro-2H-pyrazolo[4,3-c]pyridine]	–
–	< 1000	O=C(CN1CCc2nc(-c3cccc(Cl)c3Cl)sc2C1)N1CCN(C2CCC2)CC1 [Compound 358, 5-[2-(4-cyclobutylpiperazin-1-yl)-2-oxoethyl]-2-(2,3-dichlorophenyl)-4,5,6,7-tetrahydro[1,3]thiazolo [5,4-c]pyridine]	–
–	< 1000	Cc1cc(C)cc(-c2nc3c(s2)CN(CC(=O)N2CCN(C4CCC4)CC2)CC3)c1 [Compound 310, 5-[2-(4-cyclobutylpiperazin-1-yl)-2-oxoethyl]-2-(3,5-dimethylphenyl)-4,5,6,7-tetrahydro[1,3]thiazolo [5,4-c]pyridine]	–
–	< 1000	O=C(CN1CCc2nc(-c3cc(F)ccc3F)sc2C1)N1CCN(C2CCC2)CC1 [Compound 347, 5-[2-(4-cyclobutylpiperazin-1-yl)-2-oxoethyl]-2-(2,5-difluorophenyl)-4,5,6,7-tetrahydro[1,3]thiazolo [5,4-c]pyridine]	–
< 1000	–	O=C(CN1CCc2n[nH]cc2C1)N1CCN(C2CCC2)CC1 [Compound 91, 5-[2-(4-cyclobutylpiperazin-1-yl)-2-oxoethyl]-4,5,6,7-tetrahydro-2H-pyrazolo[4,3-c]pyridine]	–
< 1000	–	CCOC(=O)c1cnc2c(c1)CCN(CC(=O)N1CCN(C3CCC3)C(C)C1)C2 (centres unmarked) [Compound 117, ethyl 7-[2-(4-cyclobutyl-3-methylpiperazin-1-yl)-2-oxoethyl]-5,6,7,8-tetrahydro-1,7-naphthyridine-3-carboxylate]	–
< 1000	–	CN(C)c1ccc2c(n1)CCN(CC(=O)N1CCN(C3CCC3)CC1)C2 [Compound 224, 6-[2-(4-cyclobutylpiperazin-1-yl)-2-oxoethyl]-N,N-dimethyl-5,6,7,8-tetrahydro-1,6-naphthyridin-2-amine]	–
–	< 1000	O=C(CN1CCc2c(cnn2-c2ccc(O)nn2)C1)N1CCN(C2CCC2)CC1 [Compound 291, 6-{5-[2-(4-cyclobutylpiperazin-1-yl)-2-oxoethyl]-4,5,6,7-tetrahydro-1H-pyrazolo[4,3-c]pyridin-1-yl}pyridazin-3-ol]	–
< 1000	–	O=C(CN1CCc2nc(N3CCOCC3)ccc2C1)N1CCN(C2CCC2)CC1 [Compound 175, 6-[2-(4-cyclobutylpiperazin-1-yl)-2-oxoethyl]-2-morpholin-4-yl-5,6,7,8-tetrahydro-1,6-naphthyridine]	–
< 1000	–	O=C(CN1CCc2c(cnn2-c2ccc(Cl)nn2)C1)N1CCN(C2CCC2)CC1 [Compound 214, 1-(6-chloropyridazin-3-yl)-5-[2-(4-cyclobutylpiperazin-1-yl)-2-oxoethyl]-4,5,6,7-tetrahydro-1H-pyrazolo[4,3-c]pyridine]	–
< 1000	–	CCC1CCC[C@H]2CN(C(=O)CN3CCc4cc(-c5cncnc5)ccc4C3)CCN12 (stereo in doubt) [Compound 160, 6-ethyl-2-[(6-pyrimidin-5-yl-3,4-dihydroisoquinolin-2(1H)-yl)acetyl]octahydro-2H-pyrido[1,2-a]pyrazine]	–
< 1000	–	Cc1ccc(-c2ccc3c(c2)CCN(CC(=O)N2CCN(C4CCC4)CC2)C3)nn1 [Compound 166, 2-[2-(4-cyclobutylpiperazin-1-yl)-2-oxoethyl]-6-(6-methylpyridazin-3-yl)-1,2,3,4-tetrahydroisoquinoline]	–

More lines, now with the values behind:

SMILES	Ki [1] [nM]	Ki [2] [nM]	also measured
Cc1c2c(nn1-c1ccc(C#N)cn1)CCN(CC(=O)N1CCN(C3CCC3)CC1)C2 [Compound 274, 6-{5-[2-(4-cyclobutylpiperazin-1-yl)-2-oxoethyl]-3-methyl-4,5,6,7-tetrahydro-2H-pyrazolo[4,3-c]pyridin-2-yl}nicotinonitrile]	< 1000	–	–
CC1CCCC1N1CCN(C(=O)CN2CCc3nc(N4CCCC4)ncc3C2)CC1 (centres unmarked) [Compound 218, 6-{2-[4-(2-methylcyclopentyl)piperazin-1-yl]-2-oxoethyl}-2-pyrrolidin-1-yl-5,6,7,8-tetrahydropyrido[4,3-d]pyrimidine]	< 1000	–	–
CS(=O)(=O)c1cccc(-c2ccc3c(c2)CCN(CC(=O)N2CCN(C4CCCC4)CC2)C3)c1 [Compound 394, 2-[2-(4-cyclopentylpiperazin-1-yl)-2-oxoethyl]-6-[3-(methylsulfonyl)phenyl]-1,2,3,4-tetrahydroisoquinoline]	–	< 1000	–
O=C(CN1CCc2sc(Br)nc2C1)N1CCN(C2CCC2)CC1 [Compound 108, 2-bromo-5-[2-(4-cyclobutylpiperazin-1-yl)-2-oxoethyl]-4,5,6,7-tetrahydro[1,3] thiazolo [4,5-c]pyridine]	< 1000	–	–
CSc1cccc(-c2nc3c(s2)CN(CC(=O)N2CCN(C4CCC4)CC2)CC3)c1 [Compound 320, 5-[2-(4-cyclobutylpiperazin-1-yl)-2-oxoethyl]-2-[3-(methylthio)phenyl]-4,5,6,7-tetrahydro[1,3]thiazolo [5,4-c]pyridine]	–	< 1000	–
CC1CN(C(=O)CN2CCc3nc(-c4cscn4)sc3C2)CCN1C1CCC1 (centres unmarked) [Compound 113, 5-[2-(4-cyclobutyl-3-methylpiperazin-1-yl)-2-oxoethyl]-2-(1,3-thiazol-4-yl)-4,5,6,7-tetrahydro[1,3]thiazolo [5,4-c]pyridine]	< 1000	–	–
CCOC(=O)c1cccc(-c2nc3c(s2)CN(CC(=O)N2CCN(C4CCC4)CC2)CC3)c1 [Compound 376, ethyl 3-{5-[2-(4-cyclobutylpiperazin-1-yl)-2-oxoethyl]-4,5,6,7-tetrahydro[1,3]thiazolo [5,4-c]pyridin-2-yl}benzoate]	–	< 1000	–
CC(C)N1CCN(C(=O)CN2CCc3ccccc3C2c2ccccc2)CC1 (centres unmarked) [Compound 52, 2-[2-(4-isopropylpiperazin-1-yl)-2-oxoethyl]-1-phenyl-1,2,3,4-tetrahydroisoquinoline]	–	–	Ki [3]: < 1000 nM
Cc1nnc2ccc(-n3cc4c(n3)CCN(CC(=O)N3CCN(C5CCC5)CC3)C4)nn12 [Compound 689, 6-{5-[2-(4-cyclobutylpiperazin-1-yl)-2-oxoethyl]-4,5,6,7-tetrahydro-2H-pyrazolo[4,3-c]pyridin-2-y1}-3-methyl[1,2,4]triazolo [4,3-b]pyridazine]	–	–	Ki (Table II, assay of Example 7): < 1000 nM
N#Cc1ccc(-n2ncc3c2CCN(CC(=O)N2CCN(C4CCC4)CC2)C3)nn1 [Compound 215, 6-{5-[2-(4-cyclobutylpiperazin-1-yl)-2-oxoethyl]-4,5,6,7-tetrahydro-1H-pyrazolo[4,3-c]pyridin-1-yl}pyridazine-3-carbonitrile]	< 1000	–	–
C[C@H]1CN(C(=O)CN2CCc3cc(-c4cncnc4)ccc3C2)CCN1C1CCCC1 [Compound 610, 2-{2-[(3S)-4-cyclopentyl-3-methylpiperazin-1-yl]-2-oxoethyl}-6-pyrimidin-5-yl-1,2,3,4-tetrahydroisoquinoline]	–	–	Ki [4]: < 1000 nM
CNC(=O)c1ccc(-c2ccc3c(c2)CCN(CC(=O)N2CCN(C4CCC4)CC2)C3)cc1 [Compound 72, 4-{2-[2-(4-cyclobutylpiperazin-1-yl)-2-oxoethyl]-1,2,3,4-tetrahydroisoquinolin-6-yl}-N-methylbenzamide]	–	–	Ki [3]: < 1000 nM
CC1CCC[C@H]2CN(C(=O)CN3CCc4cc(-n5ccc(C(F)(F)F)n5)ccc4C3)CCN12 (stereo in doubt) [Compound 158, 6-methyl-2-({6-[3-(trifluoromethyl)-1H-pyrazol-1-yl]-3,4-dihydroisoquinolin-2(1H)-yl}acetyl)octahydro-2H-pyrido[1,2-a]pyrazine]	< 1000	–	–
O=C(CN1CCc2nc(NC3CCCCC3)ccc2C1)N1CCN(C2CCC2)CC1 [Compound 658, 6-[2-(4-cyclobutylpiperazin-1-yl)-2-oxoethyl]-N-cyclohexyl-5,6,7,8-tetrahydro-1,6-naphthyridin-2-amine]	–	–	Ki [4]: < 1000 nM
CCCOc1ccc(-c2ccc3c(c2)CCN(CC(=O)N2CCN(C4CCCC4)CC2)C3)cc1 [Compound 545, 2-[2-(4-cyclopentylpiperazin-1-yl)-2-oxoethyl]-6-(4-propoxyphenyl)-1,2,3,4-tetrahydroisoquinoline]	–	–	Ki [4]: < 1000 nM
COC(=O)c1ccc(-c2nc3c(s2)CN(CC(=O)N2CCN(C4CCC4)CC2)CC3)cc1 [Compound 100, methyl 4-{5-[2-(4-cyclobutylpiperazin-1-yl)-2-oxoethyl]-4,5,6,7-tetrahydro[1,3]thiazolo [5,4-c]pyridin-2-yl}benzoate]	< 1000	–	–
CC(C)c1cccc(-c2nc3c(s2)CN(CC(=O)N2CCN(C4CCC4)CC2)CC3)c1 [Compound 306, 5-[2-(4-cyclobutylpiperazin-1-yl)-2-oxoethyl]-2-(3-isopropylphenyl)-4,5,6,7-tetrahydro[1,3]thiazolo [5,4-c]pyridine]	–	< 1000	–
